Laboratory results published in US6485953B1, “Enzyme capable of hydorlyzing plaque, microorganism producing the same, and a composition comprising the same” (Lifenza Co. Ltd., priority 1999, dated 2002).
One block for each compound: values may come before it.

Legend:
[1] = system: dextranase activity of DXAMase; experiment: Stability test: dextranase activity of DXAMase in presence of enzyme inhibitors and mouthwash chemicals; type: biochemical, Lipomyces starkeyi KSM 22
Method: Dextranase activity is determined by measuring the amount of isomaltose produced by the reaction of an enzyme solution in a buffer solution containing 2% dextran for 15 min at 37° C. Dextranase 1 IU is defined as the amount of the enzyme that produces 1 μmol of isomaltose when reaction is carried out by using dextran as a substrate for 1 min at 37° C.
(§1) To test the stabilization of dextranase and amylase activities of DXAMase by chemicals comprising mouthwash solution, the enzyme activity was measured in the presence of the enzyme inhibitors and chemicals in the mouthwash solutions in Table 2. In 1 mL of each chemical solution, 5 IU of DXAMase was added and reacted for 5 min at 37° C. Reaction was further carried out by adding 2% dextran or starch of an equal volume.

[2] = system: amylase activity of DXAMase; experiment: Stability test: amylase activity of DXAMase in presence of enzyme inhibitors and mouthwash chemicals; type: biochemical, Lipomyces starkeyi KSM 22
Method: Amylase activity is measured by reacting the enzyme solution in a buffer solution containing 2% starch for 15 min at 37° C.
as §1

[3] = inhibitor concentration 10 mM, 5 IU DXAMase, 5 min at 37° C.

Relative activity (%) Dextranase ([1]; inhibitor concentration 1%): 100% | Relative activity (%) Amylase ([2]; inhibitor concentration 1%): 100%
Structure (SMILES): CC(O)CO (centres unmarked) [Propylene glycol]

Relative activity (%) Dextranase ([1]; inhibitor concentration 0.05%): 91% | Relative activity (%) Dextranase ([1]; inhibitor concentration 0.5%): 85% | Relative activity (%) Amylase ([2]; inhibitor concentration 0.05%): 92% | Relative activity (%) Amylase ([2]; inhibitor concentration 0.5%): 68%
Structure (SMILES): CCCCCCCCCCCCOS(=O)(=O)[O-].[Na+] [SDS]

Relative activity (%) Dextranase ([1]; inhibitor concentration 1%): 99% | Relative activity (%) Dextranase ([1]; inhibitor concentration 5%): 98% | Relative activity (%) Dextranase ([1]; inhibitor concentration 10%): 98% | Relative activity (%) Dextranase ([1]; inhibitor concentration 20%): 97% | Relative activity (%) Amylase ([2]; inhibitor concentration 1%): 100% | Relative activity (%) Amylase ([2]; inhibitor concentration 5%): 98% | Relative activity (%) Amylase ([2]; inhibitor concentration 10%): 97% | Relative activity (%) Amylase ([2]; inhibitor concentration 20%): 97%
Structure (SMILES): CCO [Ethanol]

effect on enzymatic activity of DXAMase (dextranase and amylase), in words ([1]; 5 IU DXAMase in 1 mL chemical solution, 5 min at 37° C.): did not decrease | Relative activity (%) Dextranase ([1]; inhibitor concentration 0.01%): 98% | Relative activity (%) Dextranase ([1]; inhibitor concentration 0.02%): 98% | Relative activity (%) Dextranase ([1]; inhibitor concentration 0.05%): 97% | Relative activity (%) Dextranase ([1]; inhibitor concentration 0.1%): 93% | Relative activity (%) Amylase ([2]; inhibitor concentration 0.01%): 98% | Relative activity (%) Amylase ([2]; inhibitor concentration 0.02%): 97% | Relative activity (%) Amylase ([2]; inhibitor concentration 0.05%): 97% | Relative activity (%) Amylase ([2]; inhibitor concentration 0.1%): 96%
Structure (SMILES): [H]/N=C(\N/C(=N/[H])NCCCCCCNC(=N)NC(=N)Nc1ccc(Cl)cc1)Nc1ccc(Cl)cc1 [Chlorhexydine]

Structure (SMILES): O=C([O-])c1ccccc1.[Na+] [Sodium benzoate]
Relative activity (%) Dextranase ([1]; inhibitor concentration 1%): 100% | Relative activity (%) Amylase ([2]; inhibitor concentration 1%): 100%

Relative activity (%) Dextranase ([1]; inhibitor concentration 0.05%): 94% | Relative activity (%) Amylase ([2]; inhibitor concentration 0.05%): 91%
Structure (SMILES): F [Fluoride]

Relative activity (%) Dextranase [1, 3]: 100% | Relative activity (%) Amylase [2, 3]: 100%
Structure (SMILES): O=C(O)CN(CCN(CC(=O)O)CC(=O)O)CC(=O)O [EDTA]
